Source: US7449494B1, “Polymeric skin moisturizing compounds” (SurfaTech Corporation, priority 2004, dated 2008)

Tested on: rough dry skin
Test: Skin moisturization evaluation: appearance of treated skin under the dissection microscope
Format: in vivo
Conditions: 5% solution applied to skin; scale of 1 to 5, 1 being poor and 5 being best
Source text: The effect of moisturization can be measured by the appearance of the skin when treated. Untreated skin that is in need of moisturization is rough, scaly and dry looking under the dissection microscope. The application of the moisturization solution to the skin and its effect upon minimizing roughness, scaling and dry appearance is a good measure of moisturization. We performed such an evaluation and rated the performance of a scale of 1 to 5. 1 being poor and 5 being best.

Compound | Rating (moisturization: minimizing roughness, scaling and dry appearance)
C[N+](C)(C)CCO [Choline] | 4
OCC(O)CO [Glycerin] | 2
